Patent publication US20080248032A1, “COMPOSITIONS AND METHODS FOR PROTECTION AGAINST CARDIAC AND/OR CENTRAL NERVOUS SYSTEM TISSUE INJURY BY INHIBITING SPHINGOSINE-1-PHOSPHATE LYASE” (CHILDREN'S HOSPITAL & RESEARCH CENTER AT OAKLAND, priority 2006, published 2008)
Values joined by “and” are separate entries in the source; they are usually repeats but may differ in a detail not shown here. Equal entries are not always repeated.

Tests used:
[1] = system: HEK293 kidney cells stably overexpressing human SPL (hSPL); test: Viability by MTT assay with daunorubicin, vector vs hSPL cells; format: cell-based; settings: hSPL cells vs vector control; FIG. 2
Experimental: In an additional experiment, HEK293 cells expressing human SPL or vector control were treated with daunorubicin (DNR), and viability was determined by MTT assay. This assay relies on reduction of 3-(4,5-dimethylthiazol-2-yl)-2,5-diphenyl tetrazolium bromide (MTT reagent) by viable cells.

[2] = system: ischemia/reperfusion (I/R) injury; test: Langendorff isolated heart ischemia/reperfusion, hearts from THI-treated mice; format: in vivo, C57BL6 male mice
Experimental: C57BL6 male mice were given THI in the water supply for 3 days. […] This example describes use of an isolated perfused heart model system for assessing cardioprotective effects of SPL inhibitors. […] Platinum electrodes connected to a stimulus generator are used to pace hearts at 360 beats/min. […] The balloon is inserted through the left atrium into the left ventricle, and pressures are recorded continuously on a chart recorder. Coronary flow is measured by collecting effluent from the coronary sinus. Noninvasive measurement of LV size and function are performed using standard echocardiographic methods in unanesthetized mice. LV dimensions, fractional shortening and ejection fraction are calculated before and at the end of a treatment period, before sacrifice in all animals.

SPL induced apoptosis = settings: cells overexpressing SPL; cited from earlier work
[3] = system: HEK294 cells expressing human SPL cDNA construct (hSPL); test: Viability by MTT assay with doxorubicin, vector vs hSPL cells; format: cell-based; settings: cells overexpressing SPL vs pcDNA3 vector; 24 h or 48 h; FIG. 1
Experimental: HEK294 cells expressing either pcDNA3 vector (PC) or a human SPL cDNA construct (hSPL) were incubated for 24 h (black bars) or 48 h (white bars) with doxorubicin, harvested and viability was determined by MTT assay. (Mosmann, J Immunol Methods, 1983, 65(1-2): 55-63).

bst1Δ cells = test: Sphingosine sensitivity of yeast growth, bst1Δ strain; format: cell-based, Saccharomyces cerevisiae; settings: concentrations as low as 10 μM sphingosine
From the text: (§1) A further test for SPL activity may be based upon functional complementation in the bst1Δ strain. It has been found, within the context of the present invention, that bst1Δ cells are highly sensitive to D-erythro-sphingosine. […] Such a level of sphingosine has no effect on the growth of wildtype cells.
(§2) A further test for SPL activity may be based upon functional complementation in the bst1Δ strain of Saccharomyces cerevisiae (Saba et al., 1997 J. Biol. Chem. 272:26087). It was been found, within the context of the presently disclosed embodiments, that bst1Δ cells were highly sensitive to D-erythro-sphingosine. […] Such a level of sphingosine had no effect on the growth of wildtype cells.

wildtype cells = test: Sphingosine sensitivity of yeast growth, wildtype; format: cell-based, Saccharomyces cerevisiae; settings: 10 μM sphingosine
From the text: as §1, §2

## COc1cccc2c1C(=O)c1c(O)c3c(c(O)c1C2=O)C[C@@](O)(C(C)=O)C[C@@H]3O[C@H]1C[C@H](N)[C@H](O)[C@H](C)O1 [daunorubicin]
[1]
  sensitivity to daunorubicin (viability, MTT): more sensitive

## CC(=O)c1nc(C(O)C(O)C(O)CO)c[nH]1 (centres unmarked) [THI, 2-acetyl-4-tetrahydroxybutylimidazole]
[2]; after 50 min ischemia, 40 min reperfusion, control heart 35%
  size of infarction (tissue uptake of tetrazolium red, TTC): 17%
[2]; after 50 min no-flow ischemia, 40 min reperfusion, control heart 52
  LVEDP (LV end-diastolic pressure): 34 mmHg
[2]; average of 3 animals
  LVDP % Recovery, Ave.: 59.2%
  LVDP Baseline, Ave.: 133.0 mmHg
  LVDP Reperf. 40′, Ave.: 79.7 mmHg
[2]; individual animals, 50 min no-flow ischemia, 40 min reperfusion
  LVDP (Left Ventricular Developed Pressure), Reperf. 40′: 52 mmHg and 88 mmHg and 99 mmHg
[2]; individual animals, Reperf. 40′ vs Baseline
  LVDP % Recovery: 42.6% and 64.2% and 70.7%
[2]; individual animals, before ischemia
  LVDP (Left Ventricular Developed Pressure), Baseline: 122 mmHg and 137 mmHg and 140 mmHg

## C[S+]([O-])c1ccc(-c2nc(-c3ccncc3)c(-c3ccc(F)cc3)[nH]2)cc1 (centres unmarked) [SB203580]
SPL induced apoptosis
  effect on SPL induced apoptosis: attenuation

## COc1cccc2c1C(=O)c1c(O)c3c(c(O)c1C2=O)C[C@@](O)(C(=O)CO)C[C@@H]3O[C@H]1C[C@H](N)[C@H](O)[C@H](C)O1 [doxorubicin]
[3]
  cell survival in the presence of doxorubicin: significantly reduced

## CCCCCCCCCCCCC/C=C/[C@@H](O)[C@@H](N)CO [sphingosine, D-erythro-sphingosine]
bst1Δ cells
  growth of bst1Δ cells: completely inhibit
Wildtype cells
  growth of wildtype cells: no effect

## Cc1ccc(C(=O)Cn2c3c(sc2=N)CCCC3)cc1 [pifithrin α]
SPL induced apoptosis
  effect on SPL induced apoptosis: attenuation
